Molecules are shown by their SMILES.

The assay concerns LPS-induced acute lung inflammation. Put plainly: Mouse acute lung inflammatory (ALI) model, LPS-induced. The assay is classed as in vivo. The note with it: TPCA-1 0.33 mg/kg i.v. The method, then: Mouse acute lung inflammatory (ALI) model: CD1 male mice were utilized. ALI was induced by intracheal spray of LPS (10 mg/kg) using a Model ICA-IC-M MicroSprayer Aerosolizer (Pen-Century). Approximately 3 hours after LPS was challenged, mice were intravenously injected with HBSS, free drug (TPCA-1), TPCA-1 loaded erythrocyte vesicles and TPCA-1 loaded HL 60 vesicles at two doses of 0.33 and 1 mg/ kg.
Bronchoalveolar lavage fluid collection and cell count: At 13 hours post-LPS administration, mice were anesthetized with an i.p. injection of ketamine and xylazine mixture. The trachea was cannulated, and 1 ml HBSS was infused intratracheally and withdrawn to obtain lavage fluid. This procedure was repeated twice. […] The total cell number was determined with a hemocytometer. […] The percentages of neutrophils were determined after counting 200 cells in randomly selected fields.
Cytokine generation: Cytokine levels in the BAL were determined using commercial ELISA kits for TNF-α and IL-6 (Biolegend, San Diego, Calif.) according to the manufacturer's instructions. […]
Measurement of lung vascular permeability: The permeability was evaluated via the larvage protein content change. The total protein concentrations were determined using a BCA protein assay kit (Thermo scientific, Rockford, Ill.).

Consider `NC(=O)Nc1sc(-c2ccc(F)cc2)cc1C(N)=O` [TPCA-1, 2-[(Aminocarbonyl)amino]-5-(4-fluorophenyl)-3-thiophenecarboxamide], for which the “therapeutic benefit on neutrophil infiltration at low dose” value is listed as “rarely showed this benefit”.

The values are drawn from patent US20180177725A1, “CELL MEMBRANE-FORMED NANOSCALE VESICLES AND METHODS OF USING THEREOF” (WASHINGTON STATE UNIVERSITY, priority 2015, published 2018).
